Experimental data reported in the NIST ThermoML archive (doi:10.1021/je300768j).
Numbers after ± are expanded uncertainties.

Conditions: DTA

SMILES: CC(=O)[O-].CCn1cc[n+](C)c1 [1-ethyl-3-methylimidazolium acetate]
- Glass transition temperature: -75.50 ± 3 °C
